Assay [1] addresses Lp(a) assembly in HepG2 cells overexpressing ApoA protein (Homo sapiens (Human), UniProt P08519). The assay is described as follows: ELISA assay on screening Lp(a) assembly inhibition. Format: cell-based. The settings on record: HepG2 cells overexpressing ApoA protein, 24 h, ELISA of supernatant. The essentials: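 HepG2 cells overexpressing ApoA treated with diluted compounds for 24 h at 37 °C, 5% CO2; EACA (10 μL of 1.5 M) added before harvesting supernatant. Secreted Lp(a) quantified by sandwich ELISA; IC50 from four-parameter Hill fit of % inhibition versus concentration.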
In general terms: In an ELISA, binding on a coated surface is turned into a signal by an enzyme label.

For a further assay, the system named is serum Lp(a). The assay is described as follows: Humanized mouse Lp(a) inhibition test. The settings on record: blood 8 h after last dose, humanized Lp(a) mice. The format is in vivo, humanized Lp(a) transgenic mouse. The protocol: The in vivo pharmacodynamics of the compounds in reducing Lp(a) was evaluated in a humanized Lp(a) transgenic mouse model. Lp(a) mice were obtained by crossing mice expressing humanized apoB-100 with mice expressing humanized apo(a) containing 16 Kringle repeats. Female mice aged 8-9 weeks were selected for the test. Housing conditions: standard light cycle (12 h light/12 h dark), temperature 20-25° C., humidity 40-70%, free access to water and normal diet. is One day before the test, mice were divided into vehicle control group and test article group (n=5/group) according to body weight and baseline plasma Lp(a) concentration. Mice were orally administered with vehicle (normal saline, 10 mL/kg) or test compound (prepared with normal saline to 3 or 0.5 mg/mL, each mouse received 10 mL/kg), once daily (9:00 am) for 3 consecutive days, and blood was collected to determine the change of serum Lp(a). Eight hours after the last dose, 10 μL of blood was collected from the tail vein and transferred to a 1.5 mL centrifuge tube containing 90 μL of normal saline, mixed well, and left to stand on ice for 30 min. The above samples were centrifuged at 4° C., 3000 rpm for 10 min, and the supernatant was collected and placed on ice. The Lp(a) concentration in the supernatant was measured by double-antibody sandwich ELISA using an anti-apo(a) capture antibody and an HRP-conjugated anti-ApoB detection antibody, with TMB for color development. The reaction was stopped with 1 N sulfuric acid, and the OD value was read at 450 nm on a Tecan microplate reader. Inhibition rate was calculated for each dosing group. Inhibition rate (%)=(vehicle control group Lp(a) concentration or self pre-dose Lp(a) concentration post-dose Lp(a) concentration)/vehicle control group Lp(a) concentration or self pre-dose Lp(a) concentration*100.

Setting [2] is: 5 mg/kg oral once daily for 3 days.

Chain of Lp(a) assembly in HepG2 cells overexpressing ApoA protein (P08519 20-2040): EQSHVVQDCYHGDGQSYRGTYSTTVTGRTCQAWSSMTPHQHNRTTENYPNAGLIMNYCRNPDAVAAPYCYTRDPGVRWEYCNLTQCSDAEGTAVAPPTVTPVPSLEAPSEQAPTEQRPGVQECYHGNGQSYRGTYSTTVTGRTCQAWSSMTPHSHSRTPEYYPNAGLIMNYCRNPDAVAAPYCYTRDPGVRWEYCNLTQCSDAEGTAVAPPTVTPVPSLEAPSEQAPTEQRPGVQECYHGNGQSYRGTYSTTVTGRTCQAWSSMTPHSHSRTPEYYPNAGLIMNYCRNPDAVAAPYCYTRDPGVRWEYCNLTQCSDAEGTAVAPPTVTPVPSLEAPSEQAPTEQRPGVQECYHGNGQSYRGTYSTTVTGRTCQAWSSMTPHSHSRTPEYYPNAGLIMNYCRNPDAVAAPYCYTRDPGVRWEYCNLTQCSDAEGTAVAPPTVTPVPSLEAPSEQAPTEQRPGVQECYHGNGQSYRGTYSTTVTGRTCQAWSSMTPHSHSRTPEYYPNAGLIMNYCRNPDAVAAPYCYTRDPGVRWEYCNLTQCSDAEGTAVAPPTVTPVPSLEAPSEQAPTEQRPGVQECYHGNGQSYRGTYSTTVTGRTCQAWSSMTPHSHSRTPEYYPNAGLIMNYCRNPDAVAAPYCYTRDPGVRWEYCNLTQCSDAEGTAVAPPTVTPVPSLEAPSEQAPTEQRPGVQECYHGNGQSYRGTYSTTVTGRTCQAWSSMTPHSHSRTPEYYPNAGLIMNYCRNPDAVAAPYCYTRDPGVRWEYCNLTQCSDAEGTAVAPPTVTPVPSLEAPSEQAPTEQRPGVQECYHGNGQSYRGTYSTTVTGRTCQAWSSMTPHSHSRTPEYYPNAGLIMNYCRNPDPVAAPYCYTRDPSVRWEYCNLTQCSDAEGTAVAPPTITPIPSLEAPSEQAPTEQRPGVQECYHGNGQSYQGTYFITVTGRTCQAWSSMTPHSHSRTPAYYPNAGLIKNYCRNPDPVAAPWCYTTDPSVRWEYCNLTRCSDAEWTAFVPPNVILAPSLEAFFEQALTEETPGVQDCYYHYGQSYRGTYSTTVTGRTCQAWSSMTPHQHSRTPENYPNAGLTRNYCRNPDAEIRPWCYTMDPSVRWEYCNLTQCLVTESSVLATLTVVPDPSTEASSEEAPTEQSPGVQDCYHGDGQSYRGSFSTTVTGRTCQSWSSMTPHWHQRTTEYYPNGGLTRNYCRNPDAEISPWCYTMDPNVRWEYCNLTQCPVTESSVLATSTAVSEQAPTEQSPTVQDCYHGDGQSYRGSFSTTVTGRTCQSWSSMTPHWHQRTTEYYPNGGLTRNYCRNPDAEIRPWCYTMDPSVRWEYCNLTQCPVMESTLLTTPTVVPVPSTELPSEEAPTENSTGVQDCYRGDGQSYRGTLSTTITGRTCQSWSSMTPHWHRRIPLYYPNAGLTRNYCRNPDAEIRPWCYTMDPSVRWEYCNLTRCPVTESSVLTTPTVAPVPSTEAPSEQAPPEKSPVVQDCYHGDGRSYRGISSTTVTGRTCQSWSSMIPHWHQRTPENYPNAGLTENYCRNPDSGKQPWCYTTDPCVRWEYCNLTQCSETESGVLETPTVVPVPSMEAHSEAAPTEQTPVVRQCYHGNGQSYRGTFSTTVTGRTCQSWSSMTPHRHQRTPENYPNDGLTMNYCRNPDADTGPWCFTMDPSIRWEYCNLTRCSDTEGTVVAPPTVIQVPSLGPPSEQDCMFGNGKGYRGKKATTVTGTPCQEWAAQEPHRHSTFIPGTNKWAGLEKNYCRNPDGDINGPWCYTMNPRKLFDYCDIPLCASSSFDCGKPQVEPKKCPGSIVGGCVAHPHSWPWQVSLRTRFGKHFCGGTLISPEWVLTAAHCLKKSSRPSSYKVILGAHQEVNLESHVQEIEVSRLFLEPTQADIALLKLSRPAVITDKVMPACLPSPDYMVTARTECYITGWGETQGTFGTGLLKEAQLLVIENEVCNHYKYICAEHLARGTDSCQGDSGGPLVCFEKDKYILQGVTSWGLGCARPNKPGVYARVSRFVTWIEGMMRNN

The IC50 is the concentration that gives 50% inhibition. Higher therefore signals weaker potency in that assay. With `O=C(O)[C@@H](Cc1cccc(CN(Cc2cccc(C[C@H](C(=O)O)[C@H]3CCNC3)c2)C(=O)COc2cccc(C[C@H](C(=O)O)[C@H]3CCNC3)c2)c1)[C@H]1CCNC1` [Compound 95, (2S,2′S)-3,3′-((((2-(3-((S)-2-carboxy-2-((R)-pyrrolidin-3-yl)ethyl)phenoxy)acetyl)azanediyl)bis(methylene))bis(3,1-phenylene))bis(2-((R)-pyrrolidin-3-yl)propanoic acid)], half-maximal inhibition in assay [1] (IC50) required 0.68 nM. In addition, the “Lp(a) Inhibition Rate” value with serum Lp(a) (30 mg/kg oral once daily for 3 days) turned out to be 95%.

Take `O=C(O)[C@@H](Cc1cccc(CCN(CCOc2cccc(C[C@H](C(=O)O)[C@H]3CCNC3)c2)C(=O)Cc2cccc(C[C@H](C(=O)O)[C@H]3CCNC3)c2)c1)[C@H]1CCNC1` [Compound 100, (S)-3-(3-(2-((3-((S)-2-carboxy-2-((R)-pyrrolidin-3-yl)ethyl)phenethyl)(2-(3-((S)-2-carboxy-2-((R)-pyrrolidin-3-yl)ethyl)phenoxy)ethyl)amino)-2-oxoethyl)phenyl)-2-((R)-pyrrolidin-3-yl)propanoic acid]: the IC50 in assay [1] was 1.12 nM. In addition, the “Lp(a) Inhibition Rate” value with serum Lp(a) (setting [2]) turned out to be 86%.

`O=C(O)[C@@H](Cc1cccc(CC(=O)N(CCOc2cccc(C[C@H](C(=O)O)[C@H]3CCNC3)c2)CCOc2cccc(C[C@H](C(=O)O)[C@H]3CCNC3)c2)c1)[C@H]1CCNC1` [Compound 111, (2S,2′S)-3,3′-(((((2-(3-((S)-2-carboxy-2-((R)-pyrrolidin-3-yl)ethyl)phenyl)acetyl)azanediyl)bis(ethane-2,1-diyl))bis(oxy))bis(3,1-phenylene))bis(2-((R)-pyrrolidin-3-yl)propanoic acid)] gave an IC50 in assay [1] of 1.02 nM. Also, the “Lp(a) Inhibition Rate” value in the assay on serum Lp(a) (setting [2]) came out at 92%.

`O=C(O)[C@@H](Cc1cccc(OCCN(CCOc2cccc(C[C@H](C(=O)O)[C@H]3CCNC3)c2)C(=O)COc2cccc(C[C@H](C(=O)O)[C@H]3CCNC3)c2)c1)[C@H]1CCNC1` [Compound 113, (2S,2′S)-3,3′-(((((2-(3-((S)-2-carboxy-2-((R)-pyrrolidin-3-yl)ethyl)phenoxy)acetyl)azanediyl)bis(ethane-2,1-diyl))bis(oxy))bis(3,1-phenylene))bis(2-((R)-pyrrolidin-3-yl)propanoic acid)] registered an IC50 in assay [1] of 1.17 nM. The “Lp(a) Inhibition Rate” value with serum Lp(a) (setting [2]) is listed as 79%.

Turning to `O=C(O)[C@@H](Cc1cccc(CN(CCOc2cccc(C[C@H](C(=O)O)[C@H]3CCNC3)c2)C(=O)Sc2cccc(C[C@H](C(=O)O)[C@H]3CCNC3)c2)c1)[C@H]1CCNC1` [Compound 138, (S)-3-(3-(2-((3-((S)-2-carboxy-2-((R)-pyrrolidin-3-yl)ethyl)benzyl)(((3-((S)-2-carboxy-2-((R)-pyrrolidin-3-yl)ethyl)phenyl)thio)carbonyl)amino)ethoxy)phenyl)-2-((R)-pyrrolidin-3-yl)propanoic acid], the IC50 in assay [1] was 2 nM. Further, the “Lp(a) Inhibition Rate” value in the assay on serum Lp(a) (setting [2]) was determined as 88%.

In assay [1], `O=C(O)[C@@H](Cc1cc(F)cc(CC(=O)N(CCOc2cc(F)cc(C[C@H](C(=O)O)[C@H]3CCNC3)c2)Cc2cc(F)cc(C[C@H](C(=O)O)[C@H]3CCNC3)c2)c1)[C@H]1CCNC1` [Compound 152, (S)-3-(3-(2-((3-((S)-2-carboxy-2-((R)-pyrrolidin-3-yl)ethyl)-5-fluorobenzyl)(2-(3-((S)-2-carboxy-2-((R)-pyrrolidin-3-yl)ethyl)-5-fluorophenoxy)ethyl)amino)-2-oxoethyl)-5-fluorophenyl)-2-((R)-pyrrolidin-3-yl)propanoic acid] yielded an IC50 of 1.26 nM. Further, the “Lp(a) Inhibition Rate” value in the assay on serum Lp(a) (setting [2]) turned out to be 90%.

The molecule `O=C(O)[C@@H](Cc1cccc(CCN(CCOCc2cccc(C[C@H](C(=O)O)[C@H]3CCNC3)c2)C(=O)Cc2cccc(C[C@H](C(=O)O)[C@H]3CCNC3)c2)c1)[C@H]1CCNC1` [Compound 161, (S)-3-(3-(2-((2-((3-((S)-2-carboxy-2-((R)-pyrrolidin-3-yl)ethyl)benzyl)oxy)ethyl)(3-((S)-2-carboxy-2-((R)-pyrrolidin-3-yl)ethyl)phenethyl)amino)-2-oxoethyl)phenyl)-2-((R)-pyrrolidin-3-yl)propanoic acid] registered an IC50 in assay [1] of 1.89 nM. Moreover, the “Lp(a) Inhibition Rate” value in the assay on serum Lp(a) (setting [2]) is 83%.

As to `COc1cc(CC(=O)N(CCOc2cc(C[C@H](C(=O)O)[C@H]3CCNC3)cc(OC)c2)Cc2cc(C[C@H](C(=O)O)[C@H]3CCNC3)cc(OC)c2)cc(C[C@H](C(=O)O)[C@H]2CCNC2)c1` [Compound 176, (S)-3-(3-(2-((3-((S)-2-carboxy-2-((R)-pyrrolidin-3-yl)ethyl)-5-methoxybenzyl)(2-(3-((S)-2-carboxy-2-((R)-pyrrolidin-3-yl)ethyl)-5-methoxyphenoxy)ethyl)amino)-2-oxoethyl)-5-methoxyphenyl)-2-((R)-pyrrolidin-3-yl)propanoic acid], in assay [1], half-maximal inhibition (IC50) required 1.81 nM. Moreover, the “Lp(a) Inhibition Rate” value in the assay with serum Lp(a) (setting [2]) is given as 78%.

The molecule `O=C(O)[C@@H](Cc1cccc(CC(=O)N(CCOc2cccc(C[C@H](C(=O)O)[C@H]3CCNC3)c2)Cc2cc(C[C@H](C(=O)O)[C@H]3CCNC3)cs2)c1)[C@H]1CCNC1` [Compound 177, (S)-3-(3-(2-((2-(3-((S)-2-carboxy-2-((R)-pyrrolidin-3-yl)ethyl)phenoxy)ethyl)((4-((S)-2-carboxy-2-((R)-pyrrolidin-3-yl)ethyl)thiophen-2-yl)methyl)amino)-2-oxoethyl)phenyl)-2-((R)-pyrrolidin-3-yl)propanoic acid] came in with an IC50 in assay [1] of 1.26 nM. In the assay on serum Lp(a) (setting [2]), the “Lp(a) Inhibition Rate” value is on record as 90%.

As for `O=C(O)[C@@H](Cc1cccc(CN(CCOc2cccc(C[C@H](C(=O)O)[C@H]3CCNC3)c2)C(=O)Cc2cc(C[C@H](C(=O)O)[C@H]3CCNC3)cs2)c1)[C@H]1CCNC1` [Compound 178, ((S)-3-(5-(2-((3-((S)-2-carboxy-2-((R)-pyrrolidin-3-yl)ethyl)benzyl)(2-(3-((S)-2-carboxy-2-((R)-pyrrolidin-3-yl)ethyl)phenoxy)ethyl)amino)-2-oxoethyl)thiophen-3-yl)-2-((R)-pyrrolidin-3-yl)propanoic acid)], the “Lp(a) Inhibition Rate” value with serum Lp(a) (setting [2]) was 84%.

For the molecule `O=C(O)[C@@H](Cc1cccc(OCCN(Cc2cc(C[C@H](C(=O)O)[C@H]3CCNC3)cs2)C(=O)Cc2cc(C[C@H](C(=O)O)[C@H]3CCNC3)cs2)c1)[C@H]1CCNC1` [Compound 180, (S)-3-(5-(2-((2-(3-((S)-2-carboxy-2-((R)-pyrrolidin-3-yl)ethyl)phenoxy)ethyl)((4-((S)-2-carboxy-2-((R)-pyrrolidin-3-yl)ethyl)thiophen-2-yl)methyl)amino)-2-oxoethyl)thiophen-3-yl)-2-((R)-pyrrolidin-3-yl)propanoic acid], the “Lp(a) Inhibition Rate” value in the assay on serum Lp(a) (setting [2]) worked out at 80%.

Regarding `[2H]C([2H])(c1cccc(CC(=O)N(CCOc2cccc(C([2H])([2H])[C@H](C(=O)O)[C@H]3CCNC3)c2)Cc2cccc(C([2H])([2H])[C@H](C(=O)O)[C@H]3CCNC3)c2)c1)[C@H](C(=O)O)[C@H]1CCNC1` [Compound 190, (S)-3-(3-(2-((3-((S)-2-carboxy-2-((R)-pyrrolidin-3-yl)ethyl-1,1-d2)benzyl)(2-(3-((S)-2-carboxy-2-((R)-pyrrolidin-3-yl)ethyl-1,1-d2)phenoxy)ethyl)amino)-2-oxoethyl)phenyl)-2-((R)-pyrrolidin-3-yl)propanoic-3,3-d2 acid], the “Lp(a) Inhibition Rate” value in the assay with serum Lp(a) (setting [2]) is reported as 83%.

As for `[2H]C([2H])(c1cccc(C[C@H](C(=O)O)[C@H]2CCNC2)c1)N(CCOc1cccc(C[C@H](C(=O)O)[C@H]2CCNC2)c1)C(=O)Cc1cccc(C[C@H](C(=O)O)[C@H]2CCNC2)c1` [Compound 193, (S)-3-(3-(2-((2-(3-((S)-2-carboxy-2-((R)-pyrrolidin-3-yl)ethyl)phenoxy)ethyl)((3-((S)-2-carboxy-2-((R)-pyrrolidin-3-yl)ethyl)phenyl)methyl-d2)amino)-2-oxoethyl)phenyl)-2-((R)-pyrrolidin-3-yl)propanoic acid], in the assay on serum Lp(a) (setting [2]), the “Lp(a) Inhibition Rate” value stood at 88%.

These data come from patent US20250179055A1, “Substituted 2-(pyrrolidine-3-yl)acetic acid derivative, preparation method and use thereof” (INNOVSTONE THERAPEUTICS LIMITED, priority 2023, published 2025).
